Read-outs that look alike come from different tables or passages of the source.
Columns and labels:
[1] = Visual analog scale of well-being after BHP or BKP (Example 1); assay type: in vivo, human; conditions: scale 1-10, 10 g oral, 12 h fast
Protocol: (§1) Two (2) healthy, male subjects reported to the laboratory following a 12 hour overnight fast. Subjects were instructed to randomly consume either 10 grams of BHP or 10 grams BKP dissolved in 12 ounces of water. Subjects were then monitored for 150 minutes following drinking the mixture. Blood glucose, ketones, and visual analog scales (VAS) of well-being, energy, and focus were taken at 0, 30, 60, 90, 120, and 150 minutes. VAS scales consisted of a continuum of numbers from 1-10 with 1 being extremely low and 10 being extremely high.

[2] = Visual analog scale of energy after BHP or BKP (Example 1); assay type: in vivo, human; conditions: scale 1-10, 10 g oral, 12 h fast
Protocol: as §1

[3] = Borg Rating of Perceived Exertion during cycling exercise (Example 2); assay type: in vivo, human; conditions: 10 grams
Source text: The purpose of this experiment was to see if C5 ketones could lower exertion during moderate and high intensity cycling exercise. Five (5) college aged males were given a placebo or BKP (10 grams) prior to and during 2-minute low, moderate and high intensity cycling bouts. […] Perceived exertion is how hard one feels like the body is working.

[4] = Blood glucose after oral BHP or BKP (Example 1); assay type: in vivo, human; conditions: 10 g oral in water, 12 h fast
Protocol: as §1
(§2) Blood ketones were measured via finger prick using an Abbott Precision device which determines mMol of BHB. Blood glucose was measured using Abbott Precision glucose strips and was measured in mg/dL.

[5] = cited from earlier work
[6] = Visual analog scale of focus after BHP or BKP (Example 1); assay type: in vivo, human; conditions: scale 1-10, 10 g oral, 12 h fast
Protocol: as §1

[7] = Blood ketones (BHB, Abbott Precision) after oral BHP or BKP (Example 1); assay type: in vivo, human; conditions: 10 g oral in water, 12 h fast
Protocol: as §1, §2

Structure (SMILES): CCC(=O)CC(=O)O [BKP, β-ketopentanoate]
- VAS of Well-Being ([1]; Combined, 0 min.): 6.5
- VAS of Well-Being ([1]; Combined, 30 min.): 6.5
- VAS of Well-Being ([1]; Combined, 60 min.): 7.5
- VAS of Well-Being ([1]; Combined, 90 min.): 7.5
- VAS of Well-Being ([1]; Combined, 120 min.): 8
- VAS of Well-Being ([1]; Combined, 150 min.): 8
- VAS of Well-Being ([1]; Subject 1, 0 min.): 7
- VAS of Well-Being ([1]; Subject 1, 30 min.): 7
- VAS of Well-Being ([1]; Subject 1, 60 min.): 9
- VAS of Well-Being ([1]; Subject 1, 90 min.): 9
- VAS of Well-Being ([1]; Subject 1, 120 min.): 9
- VAS of Well-Being ([1]; Subject 1, 150 min.): 9
- VAS of Well-Being ([1]; Subject 2, 0 min.): 6
- VAS of Well-Being ([1]; Subject 2, 30 min.): 6
- VAS of Well-Being ([1]; Subject 2, 60 min.): 6
- VAS of Well-Being ([1]; Subject 2, 90 min.): 6
- VAS of Well-Being ([1]; Subject 2, 120 min.): 7
- VAS of Well-Being ([1]; Subject 2, 150 min.): 7
- VAS of Energy ([2]; Combined, 0 min.): 6
- VAS of Energy ([2]; Combined, 30 min.): 6.5
- VAS of Energy ([2]; Combined, 60 min.): 7
- VAS of Energy ([2]; Combined, 90 min.): 7
- VAS of Energy ([2]; Combined, 120 min.): 7.5
- VAS of Energy ([2]; Combined, 150 min.): 8
- VAS of Energy ([2]; Subject 1, 0 min.): 7
- VAS of Energy ([2]; Subject 1, 30 min.): 7
- VAS of Energy ([2]; Subject 1, 60 min.): 7
- VAS of Energy ([2]; Subject 1, 90 min.): 8
- VAS of Energy ([2]; Subject 1, 120 min.): 8
- VAS of Energy ([2]; Subject 1, 150 min.): 9
- VAS of Energy ([2]; Subject 2, 0 min.): 5
- VAS of Energy ([2]; Subject 2, 30 min.): 6
- VAS of Energy ([2]; Subject 2, 60 min.): 7
- VAS of Energy ([2]; Subject 2, 90 min.): 6
- VAS of Energy ([2]; Subject 2, 120 min.): 7
- VAS of Energy ([2]; Subject 2, 150 min.): 7
- Rating of Perceived Exertion (RPE) High Intensity ([3]; college aged males, 2-minute cycling bout, High Intensity): 17 ± 2
- Rating of Perceived Exertion (RPE) Low Intensity ([3]; college aged males, 2-minute cycling bout, Low Intensity): 9 ± 1
- Rating of Perceived Exertion (RPE) Moderate Intensity ([3]; college aged males, 2-minute cycling bout, Moderate Intensity): 13 ± 2
- Rating of Perceived Exertion (RPE) 30 min.-Post ([3]; college aged males, cycling, 30 min.-Post): 8 ± 1
- Rating of Perceived Exertion (RPE) Baseline ([3]; college aged males, cycling, Baseline): 7 ± 1
- Perceived exertion compared to a placebo ([3]; moderate and high intensity cycling): lower perceived exertion at both moderate and high intensity exercise
- Blood glucose levels ([4]; Combined, 0 min.): 89.5 mg/dL
- Blood glucose levels ([4]; Combined, 30 min.): 87.5 mg/dL
- Blood glucose levels ([4]; Combined, 60 min.): 81 mg/dL
- Blood glucose levels ([4]; Combined, 90 min.): 79.5 mg/dL
- Blood glucose levels ([4]; Combined, 120 min.): 87.5 mg/dL
- Blood glucose levels ([4]; Combined, 150 min.): 84 mg/dL
- Blood glucose levels ([4]; Subject 1, 0 min.): 88 mg/dL
- Blood glucose levels ([4]; Subject 1, 30 min.): 84 mg/dL
- Blood glucose levels ([4]; Subject 1, 60 min.): 79 mg/dL
- Blood glucose levels ([4]; Subject 1, 90 min.): 83 mg/dL
- Blood glucose levels ([4]; Subject 1, 120 min.): 85 mg/dL
- Blood glucose levels ([4]; Subject 1, 150 min.): 87 mg/dL
- Blood glucose levels ([4]; Subject 2, 0 min.): 91 mg/dL
- Blood glucose levels ([4]; Subject 2, 30 min.): 91 mg/dL
- Blood glucose levels ([4]; Subject 2, 60 min.): 83 mg/dL
- Blood glucose levels ([4]; Subject 2, 90 min.): 76 mg/dL
- Blood glucose levels ([4]; Subject 2, 120 min.): 90 mg/dL
- Blood glucose levels ([4]; Subject 2, 150 min.): 81 mg/dL
- Utilisation after intravenous administration ([5]; in vivo, iv): very rapidly used
- Metabolism and tolerance in animals ([5]; in vivo): well metabolized in animals without apparent intolerance
- VAS of Focus ([6]; Combined, 0 min.): 5.5
- VAS of Focus ([6]; Combined, 30 min.): 5.5
- VAS of Focus ([6]; Combined, 60 min.): 6
- VAS of Focus ([6]; Combined, 90 min.): 6.5
- VAS of Focus ([6]; Combined, 120 min.): 7
- VAS of Focus ([6]; Combined, 150 min.): 7
- VAS of Focus ([6]; Subject 1, 0 min.): 6
- VAS of Focus ([6]; Subject 1, 30 min.): 5
- VAS of Focus ([6]; Subject 1, 60 min.): 7
- VAS of Focus ([6]; Subject 1, 90 min.): 7
- VAS of Focus ([6]; Subject 1, 120 min.): 7
- VAS of Focus ([6]; Subject 1, 150 min.): 8
- VAS of Focus ([6]; Subject 2, 0 min.): 5
- VAS of Focus ([6]; Subject 2, 30 min.): 6
- VAS of Focus ([6]; Subject 2, 60 min.): 5
- VAS of Focus ([6]; Subject 2, 90 min.): 6
- VAS of Focus ([6]; Subject 2, 120 min.): 7
- VAS of Focus ([6]; Subject 2, 150 min.): 6
- Blood ketone levels ([7]; Combined, 0 min.): 0.1 mmol
- Blood ketone levels ([7]; Combined, 30 min.): 0.1 mmol
- Blood ketone levels ([7]; Combined, 60 min.): 0.2 mmol
- Blood ketone levels ([7]; Combined, 90 min.): 0.1 mmol
- Blood ketone levels ([7]; Combined, 120 min.): 0.1 mmol
- Blood ketone levels ([7]; Combined, 150 min.): 0.1 mmol
- Blood ketone levels ([7]; Subject 1, 0 min.): 0.1 mmol
- Blood ketone levels ([7]; Subject 1, 30 min.): 0.1 mmol
- Blood ketone levels ([7]; Subject 1, 60 min.): 0.2 mmol
- Blood ketone levels ([7]; Subject 1, 90 min.): 0.1 mmol
- Blood ketone levels ([7]; Subject 1, 120 min.): 0.1 mmol
- Blood ketone levels ([7]; Subject 1, 150 min.): 0.1 mmol
- Blood ketone levels ([7]; Subject 2, 0 min.): 0.1 mmol
- Blood ketone levels ([7]; Subject 2, 30 min.): 0.1 mmol
- Blood ketone levels ([7]; Subject 2, 60 min.): 0.2 mmol
- Blood ketone levels ([7]; Subject 2, 90 min.): 0.1 mmol
- Blood ketone levels ([7]; Subject 2, 120 min.): 0.1 mmol
- Blood ketone levels ([7]; Subject 2, 150 min.): 0.1 mmol

Structure (SMILES): CC[C@@H](O)CC(=O)O [(R)-B-hydroxypentanoate]
- Utilisation after intravenous administration ([5]; nondiabetic animals, intravenous, doses corresponding to 75% of the energy requirement (Leclerc et al 1995)): very rapidly used

Source: patent US20240074996A1, “C5 KETONE COMPOSITIONS AND RELATED METHODS FOR TREATING METABOLIC DYSFUNCTION” (Keto Innovations, LLC, priority 2018, published 2024)
